{
  "source": "patent US7307166B1",
  "about": "“Oxpurine nucleosides and their congeners, and acyl, derivatives thereof, for improvement of hematopoiesis” (Wellstat Therapeutics Corporation, priority 1987, dated 2007)",
  "key": {"bone marrow cells": {"tested_on": "bone marrow cells", "test": "Colony forming units in bone marrow of mice recovering from cyclophosphamide", "type": "in vivo, mouse", "procedure": "Seventy-two Balb/C female mice weighing approximately 20-grams each were given cyclophosphamide (275 mg/kg) by intraperitoneal (i.p.) injection. Twenty-four hours later and each day thereafter, mice received a 0.4 ml i.p. injection of either physiological saline (control) or palmitoylguanosine (2.5 μmoles/mouse/day in 0.2% Tween 80). On days 3, 5, 7, and 10 following CP administration 6 animals from each group were sacrificed by cervical dislocation, and the left femur of each animal obtained by sterile means. The bone marrow cells were then flushed from the femurs with McCoy's 5a Modified medium using a 23-gauge needle. Cells from femurs in the same group were pooled, dispersed by briefly vortexing, and counted using a hemocytometer. Cell suspensions were added to McCoy's Modified 5a medium containing 15% bovine calf serum, 1× Kanamycin, 0.3% agar, and 3% endotoxin-stimulated serum. […] Each group was plated in quintuplicate. After 7 days in culture (at 37° in 5% CO2 and humidified air) aggregates of 50 cells or more (“colonies”) were counted using a dissecting microscope at 25×."}, "[1]": {"tested_on": "Normal Balb/C female mice", "test": "Hematopoiesis in normal mice", "type": "in vivo, mouse", "procedure": "Normal, otherwise untreated, female Balb/C mice weighing approximately 20 grams each received a total of 4 or 9 0.4 ml intraperitoneal injections (one per day) of either Tween-80 (0.2%) (controls), palmitoylguanosine ([…]), or palmitoyldeoxyinosine ([…]). Twenty-four hours after the 4th or 9th treatment, groups of 5 or 6 animals from each of the 3 groups were bled and then sacrificed by cervical dislocation. Spleens were removed and weighed, and complete blood cell counts performed.\nNormal Balb/C female mice weighing approximately 20 grams each were given a daily 0.4 ml i.p. injection of either physiological saline (controls), palmitoylguanosine (2.6 μmoles/mouse), palmitoyldeoxyguanosine (2.6 μmoles/mouse), monopalmitoylguanosine 2′,3′-acyclic dialcohol (2.6 μmoles/mouse), and palmitoyl-8-bromoguanosine (2.6 μmoles/mouse) for 4 days. On the fifth day all 3 animals in each of the 5 groups were bled and then sacrificed by cervical dislocation. Spleens were removed and weighed, and complete blood cell counts performed. Femoral bone marrow from each mouse was collected and a differential cell count performed on marrow smears."}, "female Balb/C mice": {"tested_on": "female Balb/C mice", "test": "Cecal ligation and puncture (CLP) polymicrobial sepsis survival", "type": "in vivo, mouse", "details": "25 mg/kg i.p. daily 3 days prior to CLP", "procedure": "N^2,3′,5′-tripalmitoyldeoxyguanosine (PdG) stimulates neutrophil production. Since neutrophils are important in defense against bacteria, PdG was tested for beneficial effects in bacterial sepsis. Bacterial infection as a consequence of the immunocompromising effects of radiotherapy or chemotherapy is an important cause of mortality in cancer patients. The potential utility of PdG was evaluated in the cecal ligation and puncture model (CLP), a model of polymicrobial sepsis in which the cecum of an animal is tied off without otherwise obstructing intestinal flow, and then punctured to allow fecal matter trapped in the cecum to leak into the peritoneal cavity (O'Reilly, et al. Journal of Trauma, 33:679-682). This release causes peritonitis as well as subsequent bacteremia, shock, and mortality. The CLP model is a particularly rigorous challenge because it creates a severe and complex polymicrobial sepsis due to both Gram-negative and Gram-positive bacteria. The CLP model is analogous to a ruptured appendix or punctured intestine in humans.\n36 female Balb/C mice were employed. The mice were randomly assigned to one of three groups of twelve mice each. Two groups were treated once per day for three days prior to CLP by i.p. injection with either 25 mg/kg PdG or with vehicle alone. One group underwent the CLP procedure but received no other treatment. Survival was monitored for 60 days after CLP."}, "[2]": {"tested_on": "normal mouse bone marrow cells", "test": "Proliferation of bone marrow cells in long-term culture", "type": "cell-based", "details": "10 micrograms per ml", "procedure": "Bone marrow cells from the femurs of B6D2F1 mice were used to establish long-term marrow cultures. After four weeks, when the stromal layer was confluent, the culture was treated with microphenolic acid in order to remove all cells from the stroma. New normal bone marrow cells (1×10^5/ml) from the same source were then used to “recharge” the stromal layer. Palmitoyldeoxyguanosine was added to half of the cultures at a concentration of 10 micrograms per ml. […] On days 4 and 7 cells from the culture were removed, washed, and replated in methylcellulose. The number of granulo-monocytic colonies was counted one week later."}, "[3]": {"tested_on": "IL-3-dependent bone marrow cells", "test": "Apoptosis of IL-3-dependent bone marrow cells deprived of IL-3 (trypan blue exclusion)", "type": "cell-based, mouse", "details": "10 micrograms per milliliter", "quoted_text": "Bone marrow cells were obtained by flushing the femurs of three male B6D2F1 mice. The cells were plated at 5.0×10^5/ml in MEM plus 10% fetal calf serum and 25 Units/ml of recombinant IL-3 for 24-48 hours. Non-adherent cells were then separated from adherent cells and maintained for an additional twelve days. IL-3 washed from cells, and cells were plated in MEM plus 10% fetal calf serum in the presence or absence of IL-3 and with or without the addition of palmitoyldeoxyguanosine (10 micrograms per milliliter) or deoxyguanosine (10 micrograms per milliliter). Cells were counted using the trypan blue exclusion method, and the percent of dead cells (trypan blue positive) was determined at 24, 40, 60 and 84 hours following the wash."}, "interleukin-6": {"tested_on": "interleukin-6", "test": "LPS-induced elevation of serum interleukin-6", "type": "in vivo, mouse", "details": "PdG 25 mg/kg i.p.", "procedure": "Sixty-three female Balb/C mice were randomly assigned to one of three groups. The animals in one group received a single daily dose of N^2,3′,5′-tripalmitoyldeoxyguanosine (PdG) (25 mg/kg, i.p.), while a second group received a single daily dose of the PdG treatment vehicle (control). The third group was left untreated. On the fourth day 100 μg salmonella typhimurium LPS was administered to all three groups. Serum samples were taken just prior to LPS administration (t=0) and at two, four, six, eight, ten, twelve, sixteen, and twenty hours after LPS administration. The samples were then frozen until the time of assay. Serum levels of TNF-alpha, and IFN-gamma were measured by ELISA.\nPdG also attenuated LPS-induced elevation of serum interleukin-1-alpha and interleukin-6."}},
  "data": [
    {"compound": "CCCCCCCCCCCCCCCC(=O)OC[C@H]1O[C@@H](n2cnc3c(=O)[nH]c(N)nc32)[C@H](O)[C@@H]1O", "values": [
      {"measurement": "colony-forming units per femur", "setting": "bone marrow cells; Day 3 after CP, 2.5 μmoles/mouse/day in 0.2% Tween 80 i.p.", "value": "645 ± 26"},
      {"measurement": "colony-forming units per femur", "setting": "bone marrow cells; Day 5 after CP, 2.5 μmoles/mouse/day", "value": "2327 ± 121"},
      {"measurement": "colony-forming units per femur", "setting": "bone marrow cells; Day 7 after CP, 2.5 μmoles/mouse/day", "value": "1328 ± 140"},
      {"measurement": "colony-forming units per femur", "setting": "bone marrow cells; Day 10 after CP, 2.5 μmoles/mouse/day", "value": "647 ± 25"},
      {"measurement": "spleen weights", "setting": "[1]; Ex 44: day 5, 2.5 Moles/mouse/day i.p., 4 injections", "value": "significantly greater"},
      {"measurement": "total leukocyte counts", "setting": "[1]; Ex 44: day 10, 9 injections", "value": "significantly elevated"},
      {"measurement": "spleen weight", "setting": "[1]; Ex 56: fifth day, 2.6 μmoles/mouse i.p. daily 4 days", "value": "significantly elevated"}
    ]},
    {"compound": "CCCCCCCCCCCCCCCC(=O)Nc1nc2c(ncn2[C@H]2C[C@H](OC(=O)CCCCCCCCCCCCCCC)[C@@H](COC(=O)CCCCCCCCCCCCCCC)O2)c(=O)[nH]1", "note": "[PdG, 3′,5′-O-N^2-tripalmitoyl-2′-deoxyguanosine]", "values": [
      {"measurement": "mice alive", "setting": "female Balb/C mice; 72 hours after CLP", "value": "All"},
      {"measurement": "animals surviving / total", "setting": "female Balb/C mice; 60 day observation period", "value": "10/12"},
      {"measurement": "survival", "setting": "female Balb/C mice; 60 day observation period", "value": 83, "unit": "%"},
      {"measurement": "Cells", "setting": "[2]; day 1", "value": "1.9 ± .13 10^6/flask"},
      {"measurement": "Cells", "setting": "[2]; day 3", "value": "2.9 ± .10 10^6/flask"},
      {"measurement": "CFU-GM/flask", "setting": "[2]; day 4", "value": "5123 ± 561"},
      {"measurement": "Cells", "setting": "[2]; day 5", "value": "7.7 ± .2 10^6/flask"},
      {"measurement": "CFU-GM/flask", "setting": "[2]; day 7", "value": "33903 ± 9457"},
      {"measurement": "Cells", "setting": "[2]; day 7", "value": "4.3 ± .15 10^6/flask"},
      {"measurement": "% Dead Cells", "setting": "[3]; 40 hr after IL-3 wash", "value": "18.0 ± 3.0", "unit": "%"},
      {"measurement": "% Dead Cells", "setting": "[3]; 60 hr after IL-3 wash", "value": "16.0 ± 1.5", "unit": "%"},
      {"measurement": "% Dead Cells", "setting": "[3]; 84 hr after IL-3 wash", "value": "15.3 ± 5.5", "unit": "%"},
      {"measurement": "LPS-induced elevation of serum interleukin-6", "setting": "interleukin-6", "value": "attenuated"}
    ]}
  ]
}
